Data as given in PMC10454396 (International Journal of Molecular Sciences, 2023).
≈ marks a conversion by molar mass, not a printed value.

What was measured:
[1] = test system: mCherry-expressing S. aureus Newman; experiment: Zebrafish embryo model of S. aureus yolk infection, antibiotic treatment efficacy; format: in vivo, Staphylococcus aureus
Description: With the aim to study the in vivo efficacy of drugs, 30 hpf zebrafish embryos were infected with 50 CFU of mCherry-expressing S. aureus Newman. Embryos were then left to recover from injection for two hours and subsequently treated with various reference antibiotics. Antibiotic treatment was performed via bath water immersion as well as via microinjection into the yolk (local treatment) and the caudal vein (systemic treatment) to study whether differences in in vivo activity exist between the three administration routes. Survival was assessed daily until 120 hpf. Additionally, the infection was visualized and quantified by means of fluorescence microscopy at 24 h post treatment (hpt). At the end of every experiment, living embryos (and dead embryos, if possible) were homogenized to determine the remaining bacterial count. Five approved antibiotics from different classes were assessed in vivo. The chosen drugs ought to differ in physicochemical properties, such as molecular weight and polarity, in order to detect a pattern between successful administration routes and the physicochemical properties of the drug. Prior to efficacy assessment, drug-mediated toxicity in zebrafish embryos was investigated using the same administration routes (Figure S3). For microinjection, a fixed dose of 20 to 30 mg/kg was used for each antibiotic. The concentration for bath water immersion was based on the minimum inhibitory concentration (MIC) and the maximum tolerated concentration (MTC) of the drug, whereby it is generally recommended to use 50- to 100-fold the antibacterial MIC to see a positive effect.
Pulled glass capillaries for microinjection (Table S2) were prepared using a micropipette puller (P-1000, Sutter Instrument). Dechorionated and anaesthetized embryos were infected with 50 colony-forming units (CFU) of mCherry-expressing S. aureus Newman by microinjection into the yolk sac at 30 hpf. In order to confirm bacterial numbers, an equal volume of bacterial cells was ejected onto Tryptic Soy Agar (TSA) supplemented with 10 µg/mL chloramphenicol before and after the injection. Antibiotic treatment was performed two hours post infection (hpi) via three different administration routes, namely bath water immersion and microinjection into the yolk sac as well as the caudal vein (CV). The infection procedure and treatment of infected embryos are described in details in the supplementary materials (Table S3).
Embryos were transferred individually to microcentrifuge tubes and washed at least three times with sterile PBS. 200 µL of sterile PBS were added and embryos were mechanically homogenized using a micropestle (Carl Roth, Karlsruhe, Germany). 800 µL of sterile PBS were added to reach a final volume of 1 mL. The homogenates were diluted and plated on tryptic soy agar (TSA). CFU counts were determined after 24 h of incubation at 37 °C.
Embryos were placed in a black 96-well plate (Falcon; Thermo Fisher, Dreieich, Germany) and cryo-anaesthetized by submersion into ice water. Images for quantitative fluorescence analysis were acquired using the following equipment: a fluorescence stereo microscope (M205 FA, Leica Microsystems, Wetzlar, Germany) in combination with a fluorescence illuminator (X-Cite, 200DC, Excelitas Technologies, Waltham, MA, USA) and a microscope camera (DFC7000 T, Leica Microsystems). Quantification of fluorescence was performed using Fiji ImageJ version 2.1.0. Fluorescent Integrated Density (FID) was determined by counting the number of pixels with fluorescence intensity greater than the threshold (10) and multiplying the count with its mean intensity. For confocal imaging, embryos were anaesthetized through immersion in tricaine (945 µM, Sigma-Aldrich) and immobilized in 1.2% low-melting agarose in a flat-bottom 96-well plate. Confocal images and time-lapse series were acquired using the Celldiscoverer 7 with LSM 900 (Zeiss) together with the 5×/0.35 Plan-APOCHROMAT objective.
2. […]

[2] = test system: Staphylococcus aureus Newman WT; experiment: MIC, broth microdilution, S. aureus Newman wild type; format: cell-based; settings: Staphylococcus aureus; S. aureus Newman WT, MHB2 broth microdilution; read-out: MIC
Description: Cefazolin was obtained from Acros Organics. Ciprofloxacin hydrochloride, linezolid and vancomycin hydrochloride were obtained from Sigma-Aldrich (St. Louis, MO, USA). Tetracycline hydrochloride was obtained from Alfa Aesar. Sorangicin A was provided by HZI, Braunschweig. Stock solutions were prepared in Milli-Q water or dimethyl sulfoxide (DMSO, Sigma-Aldrich). Minimum inhibitory concentrations (MICs) were determined in cation-adjusted Mueller-Hinton broth (MHB2) using the broth microdilution method as recommended by the Clinical and Laboratory Standards Institute (CLSI). The MIC was defined as the lowest concentration of the antibiotic causing complete inhibition of visible growth of the microorganism (CLSI, 2017).
1. In vitro characterization of mCherry expressing Staphylococcus aureus Newman
1.1 Minimum inhibitory concentration
Table S1. Antibiotic susceptibility profile of Staphylococcus aureus Newman. WT: wild type. […]

zebrafish embryos = experiment: Toxicity of antimicrobials on zebrafish embryos; format: in vivo, Danio rerio; settings: bath water immersion 50x MIC, no bacteria recovered from dead embryos
Description: Toxicity of antibiotics was assessed by aquatic exposure and microinjection. For evaluation of the maximum tolerated concentration (MTC) by aquatic exposure, embryos were dechorionated at 30 hpf and placed in a flat-bottom 96-well plate (Sarstedt) with one embryo per well. Excess medium was removed and 150 µL of compound dilutions (in 0.3× Danieau’s, maximum of 1% DMSO) were added. For each antibiotic, a range of concentrations was investigated. Ten embryos were used per concentration and ten additional embryos incubated in fish medium without any antibiotic served as negative control. Microinjection of antibiotics into the caudal vein (CV) and the yolk sac was performed as described earlier. PBS-injected embryos served as negative control. Exposed embryos were maintained at 28 °C throughout the whole experiment. Embryos were monitored daily under a stereo microscope (Stemi 508, Zeiss) in order to record survival as well as anomalies, pigmentation, heartbeat and locomotor responses. An embryo was considered dead when no heart beat could be observed.

Compound: CC(=O)NC[C@H]1CN(c2ccc(N3CCOCC3)c(F)c2)C(=O)O1 [linezolid]
- bacterial fluorescence (FID) at 24 hpt ([1]; bath water immersion): No fluorescence was recorded
- effect on survival of infected embryos ([1]; bath water immersion 50-100x MIC): significantly (p < 0.0001) prolonged the survival
- recovery from infection (fluorescence microscopy and CFU plating) ([1]; bath water immersion 50x MIC): full recovery from infection
- survival ([1]; bath water immersion, treatment 2 hpi, 50 CFU yolk infection, until 120 hpf): 90%
- bacterial fluorescence (FID) at 24 hpt ([1]; caudal vein microinjection): No fluorescence was recorded
- effect on survival of infected embryos ([1]; caudal vein microinjection 20-30 mg/kg, 2 hpi): significantly (p < 0.0001) prolonged the survival
- mortality rate ([1]; yolk and caudal vein injection 2 hpi, 50 CFU yolk infection): greater than 75%
- bacterial numbers ([1]; yolk and caudal vein injection, embryos with lethal infection): exceeding 10^5 CFU/embryo
- bacterial fluorescence (FID) at 24 hpt ([1]; yolk microinjection): No fluorescence was recorded
- effect on survival of infected embryos ([1]; yolk microinjection 20-30 mg/kg, 2 hpi): significantly (p < 0.0001) prolonged the survival
- MIC [2]: 2 µg/mL (≈ 5.93 µM)
- cause of death of embryos in immersion group (zebrafish embryos): potential toxic effect
